The values below come from patent publication US20170073371A1, “ANTIMICROBIAL PEPTIDES” (ROBERT BOSCH GESELLSCHAFT FÜR MEDIZINISCHE FORSCHUNG MBH, priority 2012, published 2017).

For series [1], the system named is Bifidobacterium adolescentis. Kind of series: Antimicrobial radial diffusion assay (inhibition zone diameter). It counts as cell-based. The note with it: for antimicrobial activity (diameter of inhibition zone): FIG. 1, radial diffusion. The method, then: (§1) The letters indicate the amino acids using the single-letter code. […] The diameter of the inhibition zones represents the antimicrobial activity; a diameter of 2.5 mm is the diameter of an empty punched well in an agar plate which contains only carrier fluid (negative control). The experiments were repeated at least three times, and the mean plus standard deviation is shown.
(§2) Antimicrobial radial diffusion assays for anaerobic bacteria were carried out as described previously (see Schröder et al.: “Reduction of disulfide bonds unmasks potent antimicrobial activity of human beta-defensin 1”, Nature, 469: 419-423 (2011)). In brief, the bacteria were anaerobically cultured (Oxoid AnaeroGen”, England) for 24 hours at 37° C. on Columbia agar plates, then inoculated into liquid trypticase soy broth (TSB) medium and cultured again for 24 hours. The bacterial cultures were then washed and diluted to an optical density (OD620 nm)=0.1, of which 150 μl was used for the effectiveness assay. Incubation occurred under anaerobic conditions in 10 ml 10 mM sodium phosphate having a pH of 7.4 with 0.3 mg/ml TSB pwder and 1% (w/v) low-EEO agarose (agarose with very low EEO value)(Appli-Chem) with 0 or 2 mM dithiothreitol (DTT, Sigma Aldrich), with 1 μg synthetic, oxidized hBD-1 (Peptide Institute, Japan) or synthetic peptides, for three hours. An overcoating gel having 6% (w/v) TSB powder, 1% agarose, and 10 mM sodium phosphate buffer (pH 7.4 or 5.7), with or without DTT, was placed onto the plates. After incubation for 48 hours at 37° C. the diameters of the inhibition zones were measured. The experiments were repeated at least three times.

In series [2] the test system is Escherichia coli. The series is described as above. The note with it: FIG. 1b, 1c. It counts as cell-based. The method, then: as §1, §2
In the next series the test system is E. coli K12. Kind of series: Radial diffusion assay, D- versus L-amino acid octapeptide (FIG. 3a). It counts as cell-based, Escherichia coli. The method, then: Antimicrobial radial diffusion assays for anaerobic bacteria were carried out as described previously (see Schröder et al.: “Reduction of disulfide bonds unmasks potent antimicrobial activity of human beta-defensin 1”, Nature, 469: 419-423 (2011)). In brief, the bacteria were anaerobically cultured (Oxoid AnaeroGen”, England) for 24 hours at 37° C. on Columbia agar plates, then inoculated into liquid trypticase soy broth (TSB) medium and cultured again for 24 hours. The bacterial cultures were then washed and diluted to an optical density (OD620 nm)=0.1, of which 150 μl was used for the effectiveness assay. Incubation occurred under anaerobic conditions in 10 ml 10 mM sodium phosphate having a pH of 7.4 with 0.3 mg/ml TSB pwder and 1% (w/v) low-EEO agarose (agarose with very low EEO value)(Appli-Chem) with 0 or 2 mM dithiothreitol (DTT, Sigma Aldrich), with 1 μg synthetic, oxidized hBD-1 (Peptide Institute, Japan) or synthetic peptides, for three hours. An overcoating gel having 6% (w/v) TSB powder, 1% agarose, and 10 mM sodium phosphate buffer (pH 7.4 or 5.7), with or without DTT, was placed onto the plates. After incubation for 48 hours at 37° C. the diameters of the inhibition zones were measured. The experiments were repeated at least three times. […]

The test system of series [3] is (opportunistic) pathogenic microorganisms. Kind of series: Flow cytometric antimicrobial assay (membrane depolarization), all tested pathogens. It counts as cell-based. The note with it: 50 μg/ml; E. coli, S. aureus, C. albicans, B. fragilis; FIG. 2. The method, then:
(§3) The following peptides were investigated: modified octapeptide (SEQ ID NO. 4), wild type octapeptide (SEQ ID NO. 1), alanine-mutated octapeptide (SEQ ID NO. 7), and a heptapeptide (SEQ ID NO. 8) (each 50 μg/ml) were tested in a flow cytometric antimicrobial effectiveness assay against Escherichia coli, Staphylococcus aureus, Candida albicans, and Bacteroides fragilis. The letters once again indicate the respective amino acids in the one-letter code. The experiments were repeated twice in double batches, and the mean plus standard deviation is shown;
(§4) Flow cytometric antimicrobial assays with which the membrane depolarization of the bacteria and fungi were measured were carried out as previously described (see Nuding et al., “A flow cytometric assay to monitor antimicrobial activity of defensins and cationic tissue extracts,” Journal of Microbiological Methods, 65: 335-380 (2006)).
(§5) In brief, 1.5×10^6 cells per ml were incubated in 1:6-diluted Schaedler medium at 37° C. with peptides at a final volume of 50 μl. The defensins were dissolved in 0.01% acetic acid and were added to the bacterial/fungal suspensions at the final concentrations indicated. Bacterial or fungal suspensions that had been incubated with solvent (0.01% acetic acid) served here as controls for viability. After 90 minutes the suspensions were incubated for 10 minutes with 1 mg/ml of the membrane-potential-sensitive dye DiBAC4(3) ([bis-(1,3-dibutylbarbiturate)trimethine oxanol]) (Invitrogen, USA). The suspensions were centrifuged, and sediments resuspended in […] phosphate-buffered saline. The percentage of depolarized fluorescing bacteria or fungi in the suspension was determined using a FACSCalibur flow cytometer (Becton-Dickinson, USA) utilizing Cell Quest software (Becton-Dickinson). The experiments were repeated twice, each in duplicate.

A short description of series [4]: Reversed-phase HPLC analysis of hydrophobicity. It counts as physicochemical. Conditions: data not shown. The method, then:
For analysis by high performance liquid chromatography (HPLC), the octapeptides were mixed with 0.1% (v/v) trifluoracetic acid (TFA) and analyzed with an Agilent 1200 system (Agilent) and a Synergi reversed phase (RP) column (250×4.6 mm, 4 μm, Phenomenex, Germany).
In further experiments a reversed-phase HPLC analysis was carried out in order to investigate the hydrophobicity of the tested peptides (data not shown).

Another series has as its system Candida albicans. Nature of the series: Flow cytometric antimicrobial assay (membrane depolarization). It counts as cell-based. Conditions: 50 μg/ml; FIG. 2. The method, then:
as §3, §4, §5
(In general: Flow cytometry measures light scatter and fluorescence of single cells or particles in a stream.)

The subject of another series is Staphylococcus aureus. The series is described as above. It counts as cell-based. Conditions: 50 μg/ml; FIG. 2. The method, then:
as §3, §4, §5

In a further series the test system is Bacteroides fragilis. The series is described as above. It counts as cell-based. The note with it: 50 μg/ml; FIG. 2. The method, then: as §3, §4, §5
Series [5] has as its system Escherichia coli. The description is as above. It counts as cell-based. The note with it: 50 μg/ml; FIG. 2. The method, then:
as §3, §4, §5

For series [6] the following is noted: Schröder et al., Nature 469:419-423 (2011); cited from earlier work.
Series [7] relates to commensal bacteria of the human intestinal flora. Kind of series: Antimicrobial radial diffusion assay of human beta-defensins at pH 7.4 or 5.7, with or without DTT. It counts as cell-based. The method, then: as §2
In the present case hBD-1 and its antimicrobial activity have been further investigated. For this, the antimicrobial activity of the three human beta-defensins hBD-1, -2, and -3 with respect to commensal bacteria of the human intestinal flora were tested under standard conditions (pH 7.4) and slightly acidic conditions (pH 5.7); under both conditions, reducing conditions were also tested by adding 2 mM of the chemical reducing agent dithiothreitol (DTT) to the growth medium.

Where no end group is shown, it is not given here.

Consider “RGKAKACK [Cys6 exchanged, octapeptide with Cys6 exchanged for alanine]”, for which the “antimicrobial activity (diameter of inhibition zone)” value is given as “activity was greatly decreased” in [1] and “increased the antimicrobial activity” in the series on Escherichia coli [2].
For “RGKAKCAK [Cys7 exchanged, octapeptide with Cys7 exchanged for alanine]” the same measures were “activity was greatly decreased” and “increased the antimicrobial activity”.
For “RGKAKCCK (not fully specified (some residues); cysteine pairing not given here; also: termini modified in some versions, not given here)”, the “activity compared with the peptide made up of L-amino acids” value in series [1] (FIG. 3b) was “elevated activity”; in the series on E. coli K12, “weaker activity”.
“RGKAKCCK [wild type octapeptide, octapeptide of the eight terminal amino acids of the carboxy terminus of hBD-1]”: the “effectiveness (depolarized bacteria or fungi)” value (shortened to “effectiveness”) in series [3] is recorded as “only marginal in most cases”. The “antimicrobial activity (diameter of inhibition zone)” value in series [1] is on record as “greater antimicrobial activity than the previously tested heptapeptide”; with Escherichia coli [2], “also had antimicrobial activity”.
For the substance “ac-RGKAKCCK-NH2 (Ac-RGKAKCCK-NH2; cysteine pairing not given here) [modified octapeptide]”, the entries for the “antimicrobial activity (diameter of inhibition zone)” value (in series [1]; in the series with Escherichia coli [2]) were “rose sharply” and “did not differ significantly by comparison with the wild type peptide”, respectively. In addition, the “hydrophobicity (order of elution from RP column)” value in series [4] is on record as “highest hydrophobicity”. For the same substance, the “activity (depolarized fungi)” value in the series on Candida albicans is “outstanding activity”. In addition, the “activity (depolarized bacteria)” value was “outstanding activity” in the series on Staphylococcus aureus; “but not with respect to Escherichia coli and Bacteroides fragilis” in the series with Bacteroides fragilis; “but not with respect to Escherichia coli and Bacteroides fragilis” with Escherichia coli [5].
With “alanine-mutated octapeptide: alanine-mutated octapeptide; both cysteines exchanged (RGKAKAAK) [reference compound]”, in series [3], the “effectiveness” value is “only marginal in most cases”. Moreover, the results for the “antimicrobial activity (diameter of inhibition zone)” value (in series [1]; with Escherichia coli [2]) were “brought activity to a complete standstill” and “almost entirely shut down antimicrobial activity”, respectively.
With “hBD-1: human beta-defensin 1, obtained from Peptide Institute Inc. (DHYNCVSSGGQCLYSACPIFTKIQGTCYRGKAKCCK; disulfide (positions not given here); UniProt P60022 33-68, looked up)”, the “antimicrobial activity under reducing conditions” value in [6] is reported as “elevated antimicrobial activity”. For the same substance, the “activation of antimicrobial activity by reduction” value in series [7] (pH 5.7, 2 mM DTT, data not shown) is recorded as “activation was not observed”. Further, the “antimicrobial activity, effect of reduction” value in series [7] (reducing conditions, 2 mM dithiothreitol (DTT) in growth medium, data not shown) was “became active by reduction”. Moreover, the antimicrobial activity result in [7] (standard conditions (pH 7.4), data not shown) is “largely inactive”.
As for “hBD-3: human beta-defensin, obtained from Peptide Institute Inc. (GIINTLQKYYCRVRGGRCAVLSCLPKEEQIGKCSTRGRKCCRRKK; ends and bridges not checked; cysteine pairing not given here; UniProt P81534 23-67, looked up)”, in [7] (in most cases, tested commensals), the “antimicrobial activity compared with the other two defensins” value was “strongest activity”.
As for “wild type heptapeptide: heptapeptide that represents the seven terminal amino acids of hBD-1 (GKAKCCK) [reference compound]”, the “effectiveness” value in series [3] is listed as “only marginal in most cases”. Also, in series [1], the “antimicrobial activity (diameter of inhibition zone)” value is “highest activity”.
